IC50 data for 27 compounds are collected here from ChEMBL document CHEMBL4229444, “Design, synthesis and docking study of 4-arylpiperazine carboxamides as monoamine neurotransmitters reuptake inhibitors” (Bioorg Med Chem, 2018).

Format in all cases: cell-based
For experiment [1], the target named is Sodium-dependent serotonin transporter (Homo sapiens, UniProt P31645). Briefly: Inhibition of human SERT expressed in HEK293 cells assessed as reduction in [3H]5-HT uptake by micro beta scintillation counting analysis.
Sequence of Sodium-dependent serotonin transporter (P31645 whole entry): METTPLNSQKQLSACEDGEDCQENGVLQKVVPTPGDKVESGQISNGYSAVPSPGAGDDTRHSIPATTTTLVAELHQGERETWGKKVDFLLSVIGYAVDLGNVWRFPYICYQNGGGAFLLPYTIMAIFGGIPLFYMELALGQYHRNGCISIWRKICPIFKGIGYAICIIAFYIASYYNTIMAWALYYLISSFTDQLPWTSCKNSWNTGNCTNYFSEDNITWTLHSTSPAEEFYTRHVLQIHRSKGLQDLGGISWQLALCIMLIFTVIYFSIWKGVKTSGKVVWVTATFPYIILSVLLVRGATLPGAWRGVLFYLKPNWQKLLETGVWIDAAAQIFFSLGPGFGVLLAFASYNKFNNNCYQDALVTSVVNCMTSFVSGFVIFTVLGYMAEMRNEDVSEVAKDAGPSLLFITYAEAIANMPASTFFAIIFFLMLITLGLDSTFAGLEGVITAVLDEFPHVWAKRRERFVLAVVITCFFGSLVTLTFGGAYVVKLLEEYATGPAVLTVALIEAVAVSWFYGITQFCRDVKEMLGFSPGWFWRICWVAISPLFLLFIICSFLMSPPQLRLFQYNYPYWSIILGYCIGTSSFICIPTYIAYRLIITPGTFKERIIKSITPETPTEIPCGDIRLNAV
In experiment [2] the target is Sodium-dependent noradrenaline transporter (Homo sapiens, UniProt P23975). Briefly: Inhibition of human NET expressed in HEK293 cells assessed as reduction in [3H]-NE uptake by micro beta scintillation counting analysis.
Sequence of Sodium-dependent noradrenaline transporter (P23975 whole entry): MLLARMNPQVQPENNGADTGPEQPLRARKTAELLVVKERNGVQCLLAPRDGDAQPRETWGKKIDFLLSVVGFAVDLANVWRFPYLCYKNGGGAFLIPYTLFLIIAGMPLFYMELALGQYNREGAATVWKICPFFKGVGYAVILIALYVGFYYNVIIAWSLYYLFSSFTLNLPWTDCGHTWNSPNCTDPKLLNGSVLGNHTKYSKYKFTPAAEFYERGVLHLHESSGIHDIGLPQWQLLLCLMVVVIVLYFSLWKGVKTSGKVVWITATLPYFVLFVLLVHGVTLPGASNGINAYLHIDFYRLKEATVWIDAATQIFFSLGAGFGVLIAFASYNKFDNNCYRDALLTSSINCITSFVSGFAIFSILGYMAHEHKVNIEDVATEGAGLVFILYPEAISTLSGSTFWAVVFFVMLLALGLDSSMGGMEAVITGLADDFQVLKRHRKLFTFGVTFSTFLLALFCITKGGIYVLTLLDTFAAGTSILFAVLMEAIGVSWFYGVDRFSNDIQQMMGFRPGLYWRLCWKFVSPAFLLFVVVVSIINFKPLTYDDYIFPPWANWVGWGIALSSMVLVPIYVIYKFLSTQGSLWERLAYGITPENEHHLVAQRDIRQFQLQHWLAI
Experiment [3] concerns the target Sodium-dependent dopamine transporter (Homo sapiens, UniProt Q01959). As to the kind of experiment: Inhibition of human DAT expressed in HEK293 cells assessed as reduction in [3H]-DA uptake by micro beta scintillation counting analysis.

Sequence of Sodium-dependent dopamine transporter (Q01959 whole entry): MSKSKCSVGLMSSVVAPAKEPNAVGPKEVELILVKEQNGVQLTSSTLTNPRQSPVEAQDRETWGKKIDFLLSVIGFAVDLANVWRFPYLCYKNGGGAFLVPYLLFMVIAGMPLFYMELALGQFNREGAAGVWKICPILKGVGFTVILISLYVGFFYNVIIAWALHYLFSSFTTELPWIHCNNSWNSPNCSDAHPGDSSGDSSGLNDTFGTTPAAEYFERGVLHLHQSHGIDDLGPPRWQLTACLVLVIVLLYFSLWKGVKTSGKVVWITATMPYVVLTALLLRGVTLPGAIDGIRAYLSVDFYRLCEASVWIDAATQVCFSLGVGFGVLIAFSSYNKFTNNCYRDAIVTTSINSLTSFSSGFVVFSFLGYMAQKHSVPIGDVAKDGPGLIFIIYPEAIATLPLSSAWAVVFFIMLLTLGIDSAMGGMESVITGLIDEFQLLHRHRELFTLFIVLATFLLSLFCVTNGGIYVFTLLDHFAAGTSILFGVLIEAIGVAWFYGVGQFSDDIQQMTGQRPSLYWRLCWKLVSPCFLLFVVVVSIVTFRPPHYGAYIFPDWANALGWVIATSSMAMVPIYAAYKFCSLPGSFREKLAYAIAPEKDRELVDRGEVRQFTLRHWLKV

The IC50 is the concentration at which inhibition is half-maximal. For `O=C(NCCCN1CCN(c2ccc(Cl)c(Cl)c2)CC1)c1ccc2ccccc2n1`, the IC50 was 0.273 µM in experiment [1] and over 10 µM in experiment [2].
Take `O=C(NCCCN1CCN(c2ccccn2)CC1)c1ccc2ccccc2c1`: the values for the IC50 in experiment [1], in experiment [2] and in experiment [3] were 9.64 µM, over 10 µM and over 10 µM, respectively.
Take `O=C(NCCCN1CCN(c2ccccn2)CC1)c1cccc2ccccc12`: the IC50 in experiment [1], in experiment [2] and in experiment [3] was over 10 µM each time.
As for `O=C(NCCCN1CCN(c2cccc(Cl)c2Cl)CC1)c1cccc2ccccc12`, the IC50 in experiment [1] was 4.27 µM; in experiment [2] it was over 10 µM; in experiment [3], over 10 µM.
`O=C(NCCCN1CCN(c2cccc(Cl)c2Cl)CC1)c1ccc2ccccc2n1`: the figures for the IC50 in experiment [1], in experiment [2] and in experiment [3] were 1.17 µM, 2.55 µM and over 10 µM, respectively.
On to `O=C(NCCCN1CCN(c2cccc(Cl)c2Cl)CC1)c1ccc2ccccc2c1`, for which the IC50 in experiment [1] is 0.74 µM; in experiment [2], 0.26 µM; in experiment [3], over 10 µM.
Turning to `O=C(NCCCN1CCN(c2ccc(Cl)cc2)CC1)c1cc2ccccc2s1`, the IC50 in experiment [1] stood at 0.55 µM; in experiment [2] it was 1.34 µM.
Taken in the same sequence, the figures for `O=C(NCCCN1CCN(c2ccc(Cl)cc2)CC1)c1ccc2ccccc2c1` were 0.28 µM and over 10 µM.
For the compound `O=C(NCCCN1CCN(c2ccccc2)CC1)c1ccc2ccccc2n1`, the IC50 in experiment [1] and in experiment [2] was over 10 µM in each case.
On to `COc1ccccc1N1CCN(CCCNC(=O)c2ccc3ccccc3n2)CC1`, for which the IC50 in experiment [1] and in experiment [2] was over 10 µM in each case.
With `O=C(NCCCN1CCN(c2cccc(Cl)c2Cl)CC1)c1cc2ccccc2s1`, the figures for the IC50 in experiment [1] and in experiment [2] were 0.4 µM and 3.66 µM, respectively.
For `Cc1ccc(N2CCN(CCCNC(=O)c3ccc4ccccc4c3)CC2)cc1`, in that order: 0.46 µM and 2.69 µM.
Regarding `O=C(NCCCN1CCN(c2ccccn2)CC1)c1cc(Cl)cc(Cl)c1`, the IC50 in experiment [1], in experiment [2] and in experiment [3] was over 10 µM throughout.
For `Cc1ccc(N2CCN(CCCNC(=O)c3ccc4ccccc4n3)CC2)cc1`, the IC50 in experiment [1] was 0.23 µM; in experiment [2], over 10 µM.
Turning to `O=C(NCCCN1CCN(c2ncccn2)CC1)c1cc(Cl)cc(Cl)c1`, the IC50 in experiment [1], in experiment [2] and in experiment [3] was over 10 µM each time.
Consider `O=C(NCCCN1CCN(c2ccc(Cl)cc2Cl)CC1)c1ccc2ccccc2n1`, for which the IC50 is 6.85 µM in experiment [1] and over 10 µM in experiment [2].
As for `O=C(NCCCN1CCN(c2ccccn2)CC1)c1ccc2ccccc2n1`, the results for the IC50 in experiment [1], in experiment [2] and in experiment [3] were 6.94 µM, over 10 µM and over 10 µM, respectively.
With `O=C(NCCCN1CCN(c2cccc(Cl)c2Cl)CC1)c1cc2ccccc2o1`, the IC50 in experiment [1] and in experiment [2] was over 10 µM in each case.
As for `COc1ccc(N2CCN(CCCNC(=O)c3ccc4ccccc4n3)CC2)cc1`, the IC50 in experiment [1] came to 0.23 µM; in experiment [2], 6.07 µM.
Taken in the same sequence, the figures for `O=C(NCCCN1CCN(c2cccc(Cl)c2Cl)CC1)c1ccc(-c2ccccc2)cc1` were 1.01 µM and 3.15 µM.
For `O=C(NCCCN1CCN(c2ncccn2)CC1)c1ccc2ccccc2n1`, the IC50 in experiment [1], in experiment [2] and in experiment [3] was over 10 µM each time.
Regarding `O=C(NCCCN1CCN(c2ccc(C(F)(F)F)cc2)CC1)c1cc2ccccc2o1`, the half-inhibitory concentration (IC50) in experiment [1] was 0.741 µM; in experiment [2], over 10 µM.
For `O=C(NCCCN1CCN(c2ncccn2)CC1)c1cccc2ccccc12`, the IC50 in experiment [1], in experiment [2] and in experiment [3] was over 10 µM in each case.
Turning to `O=C(NCCCN1CCN(c2ccc(Cl)cc2)CC1)c1ccc2ccccc2n1`, the IC50 in experiment [1] was 1.32 µM; in experiment [2] it was over 10 µM.
For `COc1ccccc1N1CCN(CCCNC(=O)c2ccc(-c3ccccc3)cc2)CC1`, in that order: 4.46 µM and 4.96 µM.
Consider `O=C(NCCCN1CCN(c2ncccn2)CC1)c1ccc2ccccc2c1`, for which the IC50 in experiment [1], in experiment [2] and in experiment [3] was over 10 µM in each case.
`O=C(NCCCN1CCN(c2cccc(Cl)c2Cl)CC1)c1cc(Cl)cc(Cl)c1`: the IC50 in experiment [1], in experiment [2] and in experiment [3] was over 10 µM in each case.
